Results on 9 compounds are retold here after patent US6472348B1, “Pyridone derivatives and herbicides” (Kumiai Chemical Industry Co., Ltd., priority 1996, dated 2002).

Format in all cases: in vivo
For test [1], the system named is pale smartweed (Po). The test can be described thus: Test Example 2: herbicidal effects by upland field soil treatment.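 Also: grade of growth control; 5 = at least 90%; 4 = 70 to 90%; 3 = 50 to 70%; 2 = 30 to 50%; 1 = 10 to 30%; 0 = under 10%.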 To be noted: 100 g of the active ingredient per 10 ares. From the text:
(§1) (Test on Herbicidal Effects by Upland Field Soil Treatment)

For test [2], the system named is rice flatsedge (Ci). The description is as above. To be noted: 100 g of the active ingredient per 10 ares.
From the text: as §1

Test [3] concerns Digitaria ciliaris (Di). The description is as above. Conditions: 100 g of the active ingredient per 10 ares.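 Also: grade of growth control; 5 = at least 90%; 4 = 70 to 90%; 3 = 50 to 70%; 2 = 30 to 50%; 1 = 10 to 30%; 0 = under 10%.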
From the text: as §1

Test [4] deals with barnyardgrass (Ec). Described as above. To be noted: 100 g of the active ingredient per 10 ares.
From the text: as §1

Test [5] concerns common lambsquarters (Ch). The test is described as above. Conditions: 100 g of the active ingredient per 10 ares.
From the text: as §1

Test [6] concerns slender amaranth (Am). The description is as above. To be noted: 100 g of the active ingredient per 10 ares.
From the text: as §1

The subject of test [7] is bulrush (Sc). In words: Test Example 1: herbicidal effects by paddy field soil treatment.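 Also: grade of growth control; 5 = at least 90%; 4 = 70 to 90%; 3 = 50 to 70%; 2 = 30 to 50%; 1 = 10 to 30%; 0 = under 10%.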 Conditions: 100 g of the active ingredient per 10 ares, 21st day after the application, index 0-5 of Table 47. On the procedure: (§2) (Test on Herbicidal Effects by Paddy Field Soil Treatment)
(§3) In a plastic pot (surface area: 100 cm^2) filled with paddy field soil, barnyardgrass (Ec), monochoria (Mo) and bulrush (Sc) were sown after puddling and leveling, and flooded to a water depth of 3 cm. […] The dose was 100 g of the active ingredient per 10 ares. The plants were then cultured in a green house, and the evaluation of the herbicidal effects was conducted on the 21st day after the application in accordance with the standards as identified in Table 47.

The subject of test [8] is monochoria (Mo). The description is as above. Conditions: 100 g of the active ingredient per 10 ares, 21st day after the application, index 0-5 of Table 47. On the procedure: as §2, §3
The subject of test [9] is barnyardgrass (Ec). The test is described as above. Conditions: 100 g of the active ingredient per 10 ares, 21st day after the application, index 0-5 of Table 47. The method, then:
as §2, §3

Test [10] deals with pale smartweed (Po). The test can be described thus: Test Example 3: herbicidal effects by upland field foliage treatment. Further details: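 grade of growth control; 5 = at least 90%; 4 = 70 to 90%; 3 = 50 to 70%; 2 = 30 to 50%; 1 = 10 to 30%; 0 = under 10%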. Conditions: 100 g of the active ingredient per 10 ares, evaluated on the 14th day after treatment. The method, then:
(§4) (Test on Herbicidal Effects by Upland Field Foliage Treatment)
(§5) In a plastic pot (surface area: 120 cm^2) filled with sand, barnyardgrass (Ec), Diaitaria ciliaris (Di), pale smartweed (Po), slender amaranth (Am), common lambsquarters (Ch) and rice flatsedge (Ci) were sown and covered with soil and were cultured in a green house for 2 weeks. […] The plants were then cultured in the green house, and the evaluation of the herbicidal effects was conducted on the 14th day after the treatment in accordance with the standards as identified in Table 47. Symbol—represents “not tested”.

In test [11] the test system is rice flatsedge (Ci). The test is described as above. Set-up: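 grade of growth control; 5 = at least 90%; 4 = 70 to 90%; 3 = 50 to 70%; 2 = 30 to 50%; 1 = 10 to 30%; 0 = under 10%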. Conditions: 100 g of the active ingredient per 10 ares, evaluated on the 14th day after treatment. The method, then: as §4, §5
The test system of test [12] is barnyardgrass (Ec). Described as above. Further details: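 grade of growth control; 5 = at least 90%; 4 = 70 to 90%; 3 = 50 to 70%; 2 = 30 to 50%; 1 = 10 to 30%; 0 = under 10%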. Conditions: 100 g of the active ingredient per 10 ares, evaluated on the 14th day after treatment. The method, then: as §4, §5
The subject of test [13] is common lambsquarters (Ch). Described as above. Set-up: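 grade of growth control; 5 = at least 90%; 4 = 70 to 90%; 3 = 50 to 70%; 2 = 30 to 50%; 1 = 10 to 30%; 0 = under 10%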. Conditions: 100 g of the active ingredient per 10 ares, evaluated on the 14th day after treatment. On the procedure: as §4, §5
For test [14], the system named is Diaitaria ciliaris (Di). Described as above. Set-up: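 grade of growth control; 5 = at least 90%; 4 = 70 to 90%; 3 = 50 to 70%; 2 = 30 to 50%; 1 = 10 to 30%; 0 = under 10%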. To be noted: 100 g of the active ingredient per 10 ares, evaluated on the 14th day after treatment. The method, then: as §4, §5
In test [15] the test system is slender amaranth (Am). The test is described as above. Conditions: 100 g of the active ingredient per 10 ares, evaluated on the 14th day after treatment. Set-up: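 grade of growth control; 5 = at least 90%; 4 = 70 to 90%; 3 = 50 to 70%; 2 = 30 to 50%; 1 = 10 to 30%; 0 = under 10%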. On the procedure: as §4, §5
The mark [16] stands for this setting: 21st day after the application, index 0-5 of Table 47.
The mark [17] stands for this setting: evaluated on the 21st day after application.
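For Herbicidal effects Mo in this document: grade of growth control; 5 = at least 90%; 4 = 70 to 90%; 3 = 50 to 70%; 2 = 30 to 50%; 1 = 10 to 30%; 0 = under 10%.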

As to `Cn1c(C(F)(F)F)ccc(-c2cc(Oc3nc(Cl)cs3)c(Cl)cc2F)c1=O` [1-103], the “Herbicidal effects Po” value in [1] (setting [16]) is on record as 5. The “Herbicidal effects Ci” value in test [2] (setting [16]) is 5. In [3] (setting [16]), the “Herbicidal effects Di” value worked out at 5. Moreover, the results for the “Herbicidal effects Ec” value in test [4] (setting [16]) and in test [9] were 4 and 5, respectively. In addition, the “Herbicidal effects Ch” value in [5] (setting [16]) is 5. Besides, in [6] (setting [16]), the “Herbicidal effects Am” value is reported as 5. Also, the “Herbicidal effects Sc” value in test [7] is recorded as 5. The “Herbicidal effects Mo” value in test [8] came to 5.
Take `COc1cc(-c2ccc(C(F)(F)F)n(C)c2=O)ccc1Cl` [1-108]: the “Herbicidal effects Po” value in [1] (setting [16]) and in test [10] was 5 in each case. In addition, the “Herbicidal effects Ci” value in test [2] (setting [16]) and in [11] was 5 each time. In addition, the “Herbicidal effects Ec” value in test [4] (setting [16]), in test [9] and in [12] was 5 throughout. Also, the “Herbicidal effects Ch” value in [5] (setting [16]) and in test [13] was 5 in each case. Moreover, the “Herbicidal effects Am” value in [6] (setting [16]) and in [15] was 5 each time. Moreover, the “Herbicidal effects Sc” value in [7] stood at 5. Also, the “Herbicidal effects Mo” value in test [8] is 5. Moreover, in test [14], the “Herbicidal effects Di” value amounted to 5.
Regarding `C#CCSc1cc(-c2ccc(C(F)(F)F)n(C)c2=O)ccc1Cl` [1-112], the “Herbicidal effects Po” value in [1] (setting [16]) was determined as 5. In addition, the “Herbicidal effects Ci” value in test [2] (setting [16]) was found to be 5. Further, in test [3] (setting [16]), the “Herbicidal effects Di” value came to 5. Further, the “Herbicidal effects Ec” value in test [4] (setting [16]) and in [9] was 5 in each case. For the same compound, in test [5] (setting [16]), the “Herbicidal effects Ch” value was determined as 5. The “Herbicidal effects Am” value in [6] (setting [16]) was found to be 5. Moreover, the “Herbicidal effects Sc” value in test [7] worked out at 5. The “Herbicidal effects Mo” value in test [8] was determined as 5.
`Cn1c(C(F)(F)F)ccc(-c2cc(SCC(=O)O)c(Cl)cc2Cl)c1=O` [1-127]: the “Herbicidal effects Sc” value in test [7] is recorded as 5. The “Herbicidal effects Mo” value in test [8] amounted to 5. The “Herbicidal effects Ec” value in test [9] is on record as 5; in test [12], 4. Moreover, the “Herbicidal effects Po” value in test [10] came out at 5. Also, the “Herbicidal effects Ci” value in test [11] was found to be 5. In [13], the “Herbicidal effects Ch” value came to 5. Besides, the “Herbicidal effects Di” value in test [14] turned out to be 5. The “Herbicidal effects Am” value in test [15] was determined as 5.
For the compound `Cn1c(C(F)(F)F)ccc(-c2cc(Sc3ncccn3)c(Cl)cc2Cl)c1=O` [1-131], the “Herbicidal effects Po” value in [1] (setting [16]) is listed as 5. Moreover, the “Herbicidal effects Ci” value in test [2] (setting [16]) amounted to 5. For the same compound, in test [3] (setting [16]), the “Herbicidal effects Di” value is on record as 5. For the same compound, the “Herbicidal effects Ec” value in test [4] (setting [16]) and in test [9] was 5 throughout. Also, the “Herbicidal effects Ch” value in test [5] (setting [16]) worked out at 5. Besides, in test [6] (setting [16]), the “Herbicidal effects Am” value is 5. Besides, in test [7], the “Herbicidal effects Sc” value came out at 5. In [8], the “Herbicidal effects Mo” value was 5.
Take `CCOC(=O)COC(=O)c1cc(-c2ccc(C(F)(F)F)n(C)c2=O)c(F)cc1Cl` [1-142]: in [7], the “Herbicidal effects Sc” value came to 5. Further, in test [8], the “Herbicidal effects Mo” value is reported as 5. Moreover, the “Herbicidal effects Ec” value in test [9] and in test [12] was 5 in each case. In test [10], the “Herbicidal effects Po” value is reported as 5. The “Herbicidal effects Ci” value in test [11] turned out to be 5. The “Herbicidal effects Ch” value in test [13] was 5. For the same compound, the “Herbicidal effects Di” value in test [14] came to 5. Also, the “Herbicidal effects Am” value in test [15] is 5.
Regarding `Cn1c(C(F)(F)F)ccc(-c2cc(C(N)=O)c(Cl)cc2F)c1=O` [1-145], the “Herbicidal effects Sc” value in test [7] worked out at 5. In test [8], the “Herbicidal effects Mo” value is given as 5. Besides, the “Herbicidal effects Ec” value in test [9] and in [12] was 5 each time. Also, the “Herbicidal effects Po” value in [10] is 5. Also, in [11], the “Herbicidal effects Ci” value stood at 5. In addition, the “Herbicidal effects Ch” value in test [13] turned out to be 5. Moreover, the “Herbicidal effects Di” value in test [14] worked out at 5. Further, in test [15], the “Herbicidal effects Am” value came to 5.
As to `Cn1c(C(F)(F)F)ccc(-c2cc(OC3CCCO3)c(Cl)cc2F)c1=O` (centres unmarked) [Compound 1-183], in [7], the “Herbicidal effects Sc” value worked out at 5. In addition, the “Herbicidal effects Mo” value in [8] was 5. The “Herbicidal effects Ec” value in test [9] is 5; in test [12] it was 4. Further, in [10], the “Herbicidal effects Po” value stood at 5. For the same compound, the “Herbicidal effects Ci” value in [11] was found to be 5. Further, the “Herbicidal effects Ch” value in test [13] worked out at 5. For the same compound, the “Herbicidal effects Di” value in test [14] came out at 5. For the same compound, the “Herbicidal effects Am” value in test [15] worked out at 5.
Take `Cn1c(C(F)(F)F)ccc(-c2ccc(Cl)c(Cl)c2)c1=O` [Compound 1-185]: the “Herbicidal effects Po” value in [1] (setting [17]) is 4. Besides, the “Herbicidal effects Ci” value in test [2] (setting [17]) is recorded as 5. In test [3] (setting [17]), the “Herbicidal effects Di” value is given as 5. Moreover, the “Herbicidal effects Ec” value in test [4] (setting [17]) turned out to be 5. Also, the “Herbicidal effects Ch” value in test [5] (setting [17]) was 5. For the same compound, in [6] (setting [17]), the “Herbicidal effects Am” value is on record as 5.
